Measurements: patent US11248007B2, “Inhibitors of MALT1 and uses thereof” (Cornell University, priority 2017, dated 2022)

Tests used:
MALT1 = target: T1, MALT1 (Homo sapiens, UniProt Q9UDY8); assay: In cell MALT1 inhibition reporter system (Raji GloSensor split luciferase reporter cells, PMA/ionomycin); type: cell-based; conditions: Raji MALT1-reporter cells pre-treated 30 min with inhibitor, then PMA/ionomycin; luminescence
T1 construct: endogenous in cells; host or cells: Raji cells stably carrying the GloSensor split-luciferase reporter
T1 sequence (Q9UDY8 1-824): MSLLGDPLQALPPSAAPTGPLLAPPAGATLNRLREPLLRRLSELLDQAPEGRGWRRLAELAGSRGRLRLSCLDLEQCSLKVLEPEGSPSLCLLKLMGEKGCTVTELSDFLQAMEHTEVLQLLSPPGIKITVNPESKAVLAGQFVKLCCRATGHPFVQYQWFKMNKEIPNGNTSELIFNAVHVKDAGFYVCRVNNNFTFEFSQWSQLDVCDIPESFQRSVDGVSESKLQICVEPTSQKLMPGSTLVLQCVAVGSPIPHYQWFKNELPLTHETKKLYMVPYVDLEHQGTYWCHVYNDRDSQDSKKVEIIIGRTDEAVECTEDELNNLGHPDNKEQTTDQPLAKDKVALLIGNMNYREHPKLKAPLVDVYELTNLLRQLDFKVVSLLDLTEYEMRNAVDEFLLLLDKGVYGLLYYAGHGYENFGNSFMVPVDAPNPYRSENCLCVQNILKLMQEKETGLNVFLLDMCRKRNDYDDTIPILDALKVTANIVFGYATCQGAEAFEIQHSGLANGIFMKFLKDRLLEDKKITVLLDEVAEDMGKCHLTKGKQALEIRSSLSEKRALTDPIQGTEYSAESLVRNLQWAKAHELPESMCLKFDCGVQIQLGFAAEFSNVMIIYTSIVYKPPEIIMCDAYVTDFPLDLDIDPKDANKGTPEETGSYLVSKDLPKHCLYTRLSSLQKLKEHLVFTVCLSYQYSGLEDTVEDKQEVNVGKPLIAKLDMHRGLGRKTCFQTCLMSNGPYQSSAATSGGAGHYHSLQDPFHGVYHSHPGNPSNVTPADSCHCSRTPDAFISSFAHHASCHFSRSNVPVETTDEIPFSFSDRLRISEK
Source text: (§1) Table 1 provides the results of cell assay data showing MALT1 inhibition data (IC50) and cell proliferation inhibition data (GI50) for the example compounds.
In Cell MALT1 Inhibition Reporter System for High Throughput Screening (HTS) Method for MALT1 Protease Inhibitors
The reporter system utilized split luciferase technology (Promega GloSensor™) where a firefly luciferase enzyme is separated into two components by a cAMP-binding protein moiety. Binding of cAMP induces a conformational change that triggers light output. A MALT1 cleavage signal based on the RelB cleavage site was engineered so that the conformational change required for cAMP binding occurred only after MALT1 mediated cleavage. To control for luciferase activity interference independent of MALT1 cleavage, Renilla luciferase was used. A stable Raji reporter cell line where B-cell receptor signaling is activated with […] (PMA) and ionomycin to trigger MALT1 protease activity was generated. Raji MALT1-reporter cells were pre-treated for 30 min with inhibitors and then with PMA/ionomycin for […] and IC50 was used to rank compounds.
The assay was performed in 384-well plates. 5 μL of 10×3-fold serial compound dilutions prepared in cell culture media was added to the plate using liquid handling robotics (Microlab STAR, Hamilton). Compound start concentration was 2 μM and final vehicle concentration was 0.2% DMSO in all wells unless otherwise noted. Raji GloSensor cells were resuspended in complete media at 1.33*10^6/ml and 2% GloSensor Reagent was added to cell suspension. 45 μl of cell mix was then added to the plate and incubated for 30 minutes at 37° C. and 5% CO2. Next, 2 μL per well of a 26×PMA/IO solution (final concentration PMA=0.2 μg/mL, IO=1 μM) was added to the plate using liquid handling robotics (MultifloFX, Biotek). The plate was incubated for an additional 1 hour and 45 minutes at 37° C. and 5% CO2, and the luminescence output was read.

[1] = test system: OCI-LY3 lymphoma cell line; assay: Cell proliferation inhibition assay (CTGlo luminescence, 96 hours); type: cell-based; conditions: Homo sapiens, OCI-LY3 cells, growth inhibition relative to vehicle
Description: as §1
Cell Proliferation Inhibition Assay
Compounds were plated in 5 μL, then 2,000 cells/well were plated in 45 μL in 384-well white/clear plates (BD 353963). Cells were grown at 37° C. for 96 hours. • 1. Cells were counted to confirm a sufficient number were present in the assay. Cells were centrifuged (300×g 5 min) and resuspended at […] with fresh media. • 2. Dilutions of compounds were prepared: working dilutions were 10× the highest concentration tested and were prepared in a 96-well V-bottom plate for serial dilution. All compounds tested in each assay had the same concentration of DMSO, as well as all the serial dilutions. • 3. Compounds were plated in triplicate: 5 μL/well. (Included 12 wells of control for standard curve (3 blank, 9 standard- and three wells of z-VRPR-fnk at 50 μM as positive control). • 4. Cells were plated at a concentration of 45 μL/well. For blank, three control wells were utilized (5 μL vehicle) with an added 45 μL of media, instead of cells. • 5. The plates were briefly spun down to ensure there were no bubbles. The plates were then incubated at 37° C. for 48 hours, then steps 2-5 were repeated. • 6. Logarithmic growth of control cells was assessed by Trypan blue counting of vehicle-treated cells. • 7. 50 μL of CTGlo (Promega) was added, followed by rocking for 2 min, then incubated 10 min at RT. Luminescence was measured.
Cell count was evaluated as a measure of how well cells performed in the assay. The blank was substracted from all measurements, and growth inhibition was calculated relative to vehicle treated cells (0% inhibition) and no cells (100% inhibition) wells. The average, standard deviation and coefficient of variation was calculated for each triplicate. The coefficient of variation was less than 12%. Three independent experiments were averaged, and the growth inhibition values and concentration were used to construct dose-response curves in CDD (Collaborative Dug Discovery vault) and calculate GI50.

IC50 (MALT1) [nM] | GI50 [1] [nM] | Compound
141 | 8300 | O=C(Nc1cnc(-n2nccn2)c(Cl)c1)Nc1cnc2ccccc2c1-c1ccco1 [Example 15, 1-(5-Chloro-6-(2H-1,2,3-triazol-2-yl)pyridin-3-yl)-3-(4-(furan-2-yl)quinolin-3-yl)urea]
45 | 3490 | COC(C)c1c(NC(=O)Nc2cnc(-n3nccn3)c(Cl)c2)cnc2ccc(C)cc12 (centres unmarked) [Example 21, 1-(5-Chloro-6-(1H-1,2,3-triazol-2-yl)pyridin-3-yl)-3-(4-(1-methoxyethyl)-6-methylquinolin-3-yl)urea]
33 | 1010 | O=C(Nc1cnc(-n2nccn2)c(Cl)c1)Nc1cnc2scnc2c1C1CC1 [Example 36, 1-(5-Chloro-6-(2H-1,2,3-triazol-2-yl)pyridin-3-yl)-3-(7-cyclopropylthiazolo[5,4-b]pyridin-6-yl)urea]
57 | 1130 | COC(C)(C)c1c(NC(=O)Nc2cnc(-n3nccn3)c(Cl)c2)cnc2ccc(Cl)cc12 [Example 1, 1-(6-Chloro-4-(2-methoxypropan-2-yl)quinolin-3-yl)-3-(5-chloro-6-(2H-1,2,3-triazol-2-yl)pyridin-3-yl)urea]
